Earlier results as cited in PubChem BioAssay AID1259409 (Chemical Carcinogenesis Research Information System (CCRIS), 2018).

System: rodent chemically induced tumor inhibition, incidence and multiplicity
Experiment: CCRIS tumor inhibitor studies

In the case of N[C@@H](Cc1ccc(O)cn1)C(=O)O, the “tumour outcome (control, treated, inhibition, significance)” value (Carcinogen: 7,12-DIMETHYLBENZ[A]ANTHRACENE, 57-97-6, Dose [Inhibitor]: 0, 2 MG IN 50% ETHANOL 1/3 D BEGINNING 2 D POST CARCINOGEN TREATMENT (STUDY DURATION: 30 WK), Route [Inhibitor]: DERMAL, Species: MOUSE, Strain/Sex: TRANSGENIC/MALE, FEMALE, Target Tissue: Type of Lesion: SKIN: PAPILLOMA, Dose [Carcinogen]: 5 MG/KG/BW ONCE, Promoter: NONE USED) is given as 100%, 45%, 55%, not calculated and the “tumour outcome (control, treated, inhibition, significance)” value (Carcinogen: METHYLNITROSOUREA, 684-93-5, Dose [Inhibitor]: 0, 2 MG/MOUSE 1/2 D FOR 12 WK BEGINNING 1 D POST CARCINOGEN TREATMENT (STUDY DURATION: 12 WK), Route [Inhibitor]: INTRAPERITONEAL, Species: MOUSE, Strain/Sex: TRANSGENIC/MALE, FEMALE, Target Tissue: Type of Lesion: FORESTOMACH: PAPILLOMA, Dose [Carcinogen]: 50 MG/KG IN 10 MILLIMOLAR CITRATE BUFFER, Promoter: NONE USED) is given as 100%, 0%, 100%, not calculated.

In the case of Nc1ncn([C@@H]2O[C@H](CO)[C@@H](O)[C@H]2O)c(=O)n1, the “tumour outcome (control, treated, inhibition, significance)” value (Carcinogen: DIETHYLNITROSAMINE, 55-18-5, Dose [Inhibitor]: 0, 5 MG/KG INJECTED 4, 24, AND 48 HR AFTER EACH CARCINOGEN EXPOSURE (STUDY DURATION: 6 MO), Route [Inhibitor]: INTRAPERITONEAL, Species: RAT, Strain/Sex: BD6/MALE, Target Tissue: Type of Lesion: ESOPHAGUS: TUMOR, Dose [Carcinogen]: 80 MG/KG 1/WK FOR 5 WK) is given as 4/29 (14%), 3/27 (11%), 21%, not calculated, the “tumour outcome (control, treated, inhibition, significance)” value (Carcinogen: DIETHYLNITROSAMINE, 55-18-5, Dose [Inhibitor]: 0, 5 MG/KG INJECTED 4, 24, AND 48 HR AFTER EACH CARCINOGEN EXPOSURE (STUDY DURATION: 6 MO), Route [Inhibitor]: INTRAPERITONEAL, Species: RAT, Strain/Sex: BD6/MALE, Target Tissue: Type of Lesion: LIVER: TUMOR, Dose [Carcinogen]: 80 MG/KG 1/WK FOR 5 WK) is given as 15/29 (52%), 25/27 (93%), -79%, not calculated and the “tumour outcome (control, treated, inhibition, significance)” value (Carcinogen: DIETHYLNITROSAMINE, 55-18-5, Dose [Inhibitor]: 0, 10 MG/KG INJECTED 4, 24, AND 48 HR AFTER EACH CARCINOGEN EXPOSURE (STUDY DURATION: 6 MO), Route [Inhibitor]: INTRAPERITONEAL, Species: RAT, Strain/Sex: BD6/MALE, Target Tissue: Type of Lesion: ESOPHAGUS: TUMOR, Dose [Carcinogen]: 80 MG/KG 1/WK FOR 5 WK) is given as 4/29 (14%), 0/7 (0%), 100%, not calculated. The “tumour outcome (control, treated, inhibition, significance)” value (Carcinogen: DIETHYLNITROSAMINE, 55-18-5, Dose [Inhibitor]: 0, 10 MG/KG INJECTED 4, 24, AND 48 HR AFTER EACH CARCINOGEN EXPOSURE (STUDY DURATION: 6 MO), Route [Inhibitor]: INTRAPERITONEAL, Species: RAT, Strain/Sex: BD6/MALE, Target Tissue: Type of Lesion: LIVER: TUMOR, Dose [Carcinogen]: 80 MG/KG 1/WK FOR 5 WK) was 15/29 (52%), 6/7 (86%), -65%, not calculated.

For NCCCN, the “tumour outcome (control, treated, inhibition, significance)” value (Carcinogen: AZOXYMETHANE, 25843-45-2, Dose [Inhibitor]: 0, 2.5 G/L IN DRINKING WATER AD LIBITUM FOR DURATION OF STUDY (STUDY DURATION: 40 WK), Route [Inhibitor]: ORAL, Species: RAT, Strain/Sex: WISTAR/MALE, Target Tissue: Type of Lesion: INTESTINE: TUMOR, Dose [Carcinogen]: 7.4 MG/KG BW IN 0.9% SALINE 1/WK FOR 10 WK, Promoter: BOMBESIN, 31362-50-2) is given as 20/20 (100%), 11/20 (55%), 45%, p<0.01, the “tumour outcome (control, treated, inhibition, significance)” value (Carcinogen: AZOXYMETHANE, 25843-45-2, Dose [Inhibitor]: 0, 2.5 G/L IN DRINKING WATER FOR DURATION OF STUDY (STUDY DURATION: 45 WK), Route [Inhibitor]: ORAL, Species: RAT, Strain/Sex: WISTAR/MALE, Target Tissue: Type of Lesion: COLON: TUMOR, Dose [Carcinogen]: 7.4 MG/KG BW IN 0.9% SALINE 1/WK FOR 10 WK, Promoter: VASOACTIVE INTESTINAL PEPTIDE, 37221-79-7) is given as 14/18 (78%), 6/18 (33%), 58%, p<0.02 and the “tumour outcome (control, treated, inhibition, significance)” value (Carcinogen: N-BUTYL-N-(4-HYDROXYBUTYL)NITROSAMINE [3817-11-6], Dose [Inhibitor]: 2 G/L IN DRINKING WATER FOR 32 WK BEGINNING 2 D POST LAST CARCINOGEN DOSE (STUDY DURATION: 36 WK), Route [Inhibitor]: ORAL, Species: RAT, Strain/Sex: F344/MALE, Target Tissue: Type of Lesion: URINARY BLADDER: CARCINOMA, Dose [Carcinogen]: 0.05% IN DRINKING WATER FOR 4 WK (STUDY DURATION: 36 WK), Promoter: NONE) is given as 5/17 (29%), 3/17 (18%), 39%, not significant. The “tumour outcome (control, treated, inhibition, significance)” value (Carcinogen: N-BUTYL-N-(4-HYDROXYBUTYL)NITROSAMINE [3817-11-6], Dose [Inhibitor]: 2 G/L IN DRINKING WATER FOR 32 WK BEGINNING 2 D POST LAST CARCINOGEN DOSE (STUDY DURATION: 36 WK), Route [Inhibitor]: ORAL, Species: RAT, Strain/Sex: F344/MALE, Target Tissue: Type of Lesion: URINARY BLADDER: CARCINOMA, Dose [Carcinogen]: 0.05% IN DRINKING WATER FOR 4 WK (STUDY DURATION: 36 WK), Promoter: SODIUM L-ASCORBATE [134-03-2]) was 15/15 (100%), 18/18 (100%), 0%, not significant, the “tumour outcome (control, treated, inhibition, significance)” value (Carcinogen: N-BUTYL-N-(4-HYDROXYBUTYL)NITROSAMINE [3817-11-6], Dose [Inhibitor]: 2 G/L IN DRINKING WATER FOR 32 WK BEGINNING 2 D POST LAST CARCINOGEN DOSE (STUDY DURATION: 36 WK), Route [Inhibitor]: ORAL, Species: RAT, Strain/Sex: F344/MALE, Target Tissue: Type of Lesion: URINARY BLADDER: PAPILLOMA, Dose [Carcinogen]: 0.05% IN DRINKING WATER FOR 4 WK (STUDY DURATION: 36 WK), Promoter: SODIUM L-ASCORBATE [134-03-2]) was 15/15 (100%), 18/18 (100%), 0%, not significant and the “tumour outcome (control, treated, inhibition, significance)” value (Carcinogen: N-METHYL-N'-NITRO-N-NITROSOGUANIDINE, 70-25-7, Dose [Inhibitor]: 0, 2.5 G/L IN DRINKING WATER BEGINNING 1 WK POST CARCINOGEN TREATMENT AND CONTINUING FOR DURATION OF STUDY (STUDY DURATI, Route [Inhibitor]: ORAL, Species: RAT, Strain/Sex: WISTAR/MALE, Target Tissue: Type of Lesion: STOMACH: ADENOCARCINOMA, Dose [Carcinogen]: 50 UG/ML IN DRINKING WATER FOR 25 WK, Promoter: BOMBESIN, 31362-50-2) was 14/20 (70%), 6/20 (30%), 57%, p<0.05. For the same compound, the “tumour outcome (control, treated, inhibition, significance)” value (Carcinogen: N-METHYL-N'-NITRO-N-NITROSOGUANIDINE, 70-25-7, Dose [Inhibitor]: 0, 2.5 G/L IN DRINKING WATER FOR 26 WK BEGINNING 1 WK POST CARCINOGEN TREATMENT (STUDY DURATION: 52 WK), Route [Inhibitor]: ORAL, Species: RAT, Strain/Sex: WISTAR/MALE, Target Tissue: Type of Lesion: GLANDULAR STOMACH: ADENOCARCINOMA, Dose [Carcinogen]: 25 UG/ML IN DRINKING WATER FOR 25 WK, Promoter: SODIUM CHLORIDE, 7647-14-5) was 14/19 (74%), 6/20 (30%), 59%, p<0.02 and the “tumour outcome (control, treated, inhibition, significance)” value (Carcinogen: N-METHYL-N'-NITRO-N-NITROSOGUANIDINE, 70-25-7, Dose [Inhibitor]: 0, 25 G/L IN DRINKING WATER FOR 26 WK BEGINNING 1/WK POST CARCINOGEN TREATMENT (STUDY DURATION: 52 WK), Route [Inhibitor]: ORAL, Species: RAT, Strain/Sex: WISTAR/MALE, Target Tissue: Type of Lesion: STOMACH: ADENOCARCINOMA, Dose [Carcinogen]: 25 UG/ML IN DRINKING WATER FOR 25 WK, Promoter: TYROSINE METHYL ESTER, 1080-06-4) was 15/18 (83%), 8/18 (44%), 47%, p<0.05.

In the case of CCCCCCCCCCCCCCCC(=O)OC[C@@]1(O)C[C@@]23CC[C@@H]4c5ccoc5CC[C@@]4(C)[C@@H]2CC[C@@H]1C3, the “tumour outcome (control, treated, inhibition, significance)” value (Carcinogen: 7,12-DIMETHYLBENZ[A]ANTHRACENE, 57-97-6, Dose [Inhibitor]: 0, 60 MG 1/D FOR 3 D BEGINNING 3 D PRIOR TO CARCINOGEN DOSE (STUDY DURATION: 20 WK), Route [Inhibitor]: GAVAGE, Species: RAT, Strain/Sex: SPRAGUE-DAWLEY/FEMALE, Target Tissue: Type of Lesion: MAMMARY GLAND: TUMOR, Dose [Carcinogen]: 12 MG IN 1 ML OLIVE OIL ONCE, Promoter: NONE USED) is listed as 84%, 69%, 18%, not significant.
